Source: the supplement of paper PMC11451515

Tested on: NOMO1
Test: cell viability relative to DMSO control; higher = less cytotoxic
Conditions: 48 h
Procedure, shortened: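 NOMO1 or SEM cells were plated at 500 cells/well and P12-Ichikawa cells at 1000 cells/well in 1536-well plates (5 μl), after each leukemia line had been adapted for at least four passages in each medium. Pin dosing delivered library compounds in DMSO at 11 threefold concentrations, 47 μM to 0.79 nM. CellTiter-Glo One luminescence was read after 48 h at 37°C. Viability is reported as a per-plate percentage of DMSO wells, with cell-free wells as background.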

[1] = HPLM + 10% dialyzed FBS, 0.000781 µM
[2] = HPLM + 10% dialyzed FBS, 0.00234 µM
[3] = HPLM + 10% dialyzed FBS, 0.00702 µM
[4] = HPLM + 10% dialyzed FBS, 0.0211 µM
[5] = HPLM + 10% dialyzed FBS, 0.0632 µM
[6] = HPLM + 10% dialyzed FBS, 0.19 µM
[7] = HPLM + 10% dialyzed FBS, 0.569 µM
[8] = HPLM + 10% dialyzed FBS, 1.71 µM
[9] = HPLM + 10% dialyzed FBS, 5.12 µM
[10] = HPLM + 10% dialyzed FBS, 15.4 µM
[11] = HPLM + 10% dialyzed FBS, 46.1 µM
[12] = RPMI 5 mM glucose + 10% FBS, 0.000781 µM
[13] = RPMI 5 mM glucose + 10% FBS, 0.00234 µM
[14] = RPMI 5 mM glucose + 10% FBS, 0.00702 µM
[15] = RPMI 5 mM glucose + 10% FBS, 0.0211 µM
[16] = RPMI 5 mM glucose + 10% FBS, 0.0632 µM
[17] = RPMI 5 mM glucose + 10% FBS, 0.19 µM
[18] = RPMI 5 mM glucose + 10% FBS, 0.569 µM
[19] = RPMI 5 mM glucose + 10% FBS, 1.71 µM
[20] = RPMI 5 mM glucose + 10% FBS, 5.12 µM
[21] = RPMI 5 mM glucose + 10% FBS, 15.4 µM
[22] = RPMI 5 mM glucose + 10% FBS, 46.1 µM
[23] = RPMI 5 mM glucose + 10% dialyzed FBS, 0.000781 µM
[24] = RPMI 5 mM glucose + 10% dialyzed FBS, 0.00234 µM
[25] = RPMI 5 mM glucose + 10% dialyzed FBS, 0.00702 µM
[26] = RPMI 5 mM glucose + 10% dialyzed FBS, 0.0211 µM
[27] = RPMI 5 mM glucose + 10% dialyzed FBS, 0.0632 µM
[28] = RPMI 5 mM glucose + 10% dialyzed FBS, 0.19 µM
[29] = RPMI 5 mM glucose + 10% dialyzed FBS, 0.569 µM
[30] = RPMI 5 mM glucose + 10% dialyzed FBS, 1.71 µM
[31] = RPMI 5 mM glucose + 10% dialyzed FBS, 5.12 µM
[32] = RPMI 5 mM glucose + 10% dialyzed FBS, 15.4 µM
[33] = RPMI 5 mM glucose + 10% dialyzed FBS, 46.1 µM

Row | Compound | cell viability [1] | cell viability [2] | cell viability [3] | cell viability [4] | cell viability [5] | cell viability [6] | cell viability [7] | cell viability [8] | cell viability [9] | cell viability [10] | cell viability [11] | cell viability [12] | cell viability [13] | cell viability [14] | cell viability [15] | cell viability [16] | cell viability [17] | cell viability [18] | cell viability [19] | cell viability [20] | cell viability [21] | cell viability [22] | cell viability [23] | cell viability [24] | cell viability [25] | cell viability [26] | cell viability [27] | cell viability [28] | cell viability [29] | cell viability [30] | cell viability [31] | cell viability [32] | cell viability [33]
1 | C[C@@]12C(=O)OC(=O)[C@@]1(C)C1CCC2O1 | 111% | 109% | 107% | 116% | 115% | 123% | 114% | 101% | 70.4% | 12.6% | 6.53% | 98.4% | 90.8% | 86.6% | 87.1% | 103% | 89.9% | 95.3% | 81.6% | 79.9% | 8.16% | 6.61% | 110% | 96.1% | 101% | 99.7% | 106% | 106% | 88.6% | 89.8% | 64.9% | 7.15% | 5.77%
2 | CC1=C(C)C(=O)C(C(CCCCCC(=O)O)c2ccccc2)=C(C)C1=O (configuration not stated) | 75.8% | 78.1% | 83.4% | 93.9% | 93.6% | 109% | 53.4% | 97.9% | 27.8% | 27.1% | 13.5% | 68% | 82.7% | 70.7% | 74.7% | 74.9% | 79.3% | 76.1% | 80.4% | 19.6% | 22.3% | 12.5% | 75.6% | 78.9% | 75% | 87.7% | 83.7% | 84.2% | 86.4% | 78% | 25.1% | 27.4% | 15%
3 | OC(c1cc(C(F)(F)F)nc2c(C(F)(F)F)cccc12)C1CCCCN1 (configuration not stated) | 117% | 124% | 115% | 127% | 146% | 150% | 158% | 142% | 143% | 114% | 8.46% | – | – | – | – | – | – | – | – | – | – | – | – | – | – | – | – | – | – | – | – | – | –
4 | CN(C)[S+](=O)([O-])c1ccc2c(c1)C(=Cc1cc3c([nH]1)CCCC3)C(=O)N2 | 124% | 141% | 122% | 128% | 130% | 122% | 122% | 146% | 120% | 127% | 118% | 125% | 112% | 121% | 115% | 109% | 115% | 123% | 111% | 113% | 108% | 105% | – | – | – | – | – | – | – | – | – | – | –
5 | CC1(C)O[C@@H]2C[C@H]3[C@@H]4C[C@H](F)C5=CC(=O)C=C[C@]5(C)[C@@]4(F)[C@@H](O)C[C@]3(C)[C@]2(C(=O)CO)O1 | 105% | 112% | 121% | 122% | 121% | 101% | 101% | 118% | 112% | 108% | 94% | 115% | 101% | 108% | 108% | 112% | 114% | 106% | 102% | 104% | 97.9% | 91.7% | 109% | 109% | 98.3% | 114% | 112% | 102% | 96.7% | 102% | 110% | 97.8% | 86.5%
6 | C[C@H]1C[C@@H]2[C@H](CC[C@@]3(C)[C@H]2CC[C@]3(OC(C)=O)C(C)=O)[C@@]\4(C)CCC(=O)\C=C14 | 95.2% | 112% | 116% | 112% | 119% | 110% | 125% | 123% | 120% | 81.3% | 118% | 103% | 103% | 103% | 101% | 99.5% | 107% | 128% | 117% | 101% | 95.9% | 103% | 86.7% | 98.7% | 109% | 88.5% | 101% | 98.8% | 104% | 98% | 103% | 88.7% | 112%
7 | CC[C@H](NC1=C2N=C[NH]C2=NC=N1)C/3=N/C4=C(C(=CC=C4)F)C(=O)N3C5=CC=CC=C5 | – | – | – | – | – | – | – | – | – | – | – | 116% | 119% | 139% | 122% | 125% | 116% | 113% | 113% | 111% | 107% | 76.9% | 125% | 121% | 123% | 125% | 133% | 110% | 117% | 114% | 100% | 82.2% | 57%
8 | COc1cc(OC2CCN(C)CC2)ccc1Nc1ncc2c(n1)n(C1CCCC1)c(=O)n2C | 80.9% | 86.8% | 107% | 85.9% | 96.8% | 90.8% | 103% | 108% | 93.6% | 87.7% | 2.59% | 82.7% | 82.5% | 75.4% | 84.8% | 78.1% | 92.8% | 83.2% | 76.5% | 81.1% | 76.9% | 18.4% | 76.6% | 88.9% | 90.4% | 83.6% | 81.2% | 95.2% | 91.6% | 100% | 91.7% | 60.4% | 16.1%
9 | Cc1cnn(C)c1C(=O)Nc1cc(Nc2ccc3c(/C=C/c4ccccn4)n[nH]c3c2)ccc1F | 119% | 125% | 124% | 141% | 129% | 113% | 143% | 120% | 102% | 70.4% | 12.9% | – | – | – | – | – | – | – | – | – | – | – | – | – | – | – | – | – | – | – | – | – | –
10 | CCN(CC)CCCCNc1ncc2cc(-c3cc(OC)cc(OC)c3)c(NC(=O)NC(C)(C)C)nc2n1 | 122% | 136% | 125% | 113% | 111% | 108% | 94.8% | 86.8% | 104% | 83.8% | 33.2% | – | – | – | – | – | – | – | – | – | – | – | – | – | – | – | – | – | – | – | – | – | –
